Measurements taken from US6183736A, “Small peptides with antipathogenic activity, treated plants and methods for treating same” (USDA/ARS Southern Regional Research Center, priority 1999, dated 2001).
Read-outs that look alike come from different tables or passages of the source. Residues, ends and D or L forms follow the SMILES beside them. No end group written: not given here.

Legend:
[1] = tested on: Micrococcus luteus; settings: cited from earlier work
[2] = tested on: Micrococcus luteus protoplast; settings: cited from earlier work
[3] = tested on: bacteria; settings: cited from earlier work
[4] = tested on: various yeasts, fungi and phytopathogenic fungi; settings: cited from earlier work
[5] = tested on: Aspergillus flavus; experiment: Disc plate diffusion assay; assay type: cell-based; settings: purified peptide on filter paper disc
Method: Mycelium plugs from actively growing fungal cultures were placed in the center of the petri plate. After incubation at 27° C. to allow vegetative growth, samples were applied on sterile filter paper discs laid on the agar surface. Precipitation with ammonium sulfate. The 7th day culture filtrate was sequentially precipitated with 20, 40, 60 and 80% ammonium sulfate. […] After complete purification of the antifungal peptides as described in example 8, removing salt by purification on a […] cartridge (waters) and freeze drying, both peptides were quantified by weight. […] The antifungal assays are described in example 2.

[6] = tested on: Cryphonectria parasitica; settings: cited from earlier work
[7] = tested on: Ophiostoma ulmi; settings: cited from earlier work
[8] = tested on: Ceratocystis fagacearum; settings: cited from earlier work
[9] = tested on: Verticillium dahliae; settings: cited from earlier work
[10] = tested on: Aspergillus flavus; assay type: cell-based
Method: Description of the method for the antifungal assays. […] Each well contained 100 μl Potato Dextrose Agar (PDA, Difco Laboratories) and 100 μl of sample and was inoculated with 500 spores of Aspergillus flavus. Fungal growth was monitored by reading optical density (O.D.) at 560 nm (Dynatech microplate reader). […] After complete purification of the antifungal peptides as described in example 8, removing salt by purification on a […] cartridge (waters) and freeze drying, both peptides were quantified by weight. […] The antifungal assays are described in example 2.

[11] = tested on: Mycosphaerella pinodes; settings: cited from earlier work
[12] = tested on: Candida tropicalis; settings: cited from earlier work
[13] = tested on: Candida albicans; settings: cited from earlier work
[14] = tested on: Aspergillus niger; settings: cited from earlier work
[15] = tested on: Cladosporium cladosporioides; settings: cited from earlier work
[16] = tested on: Saccharomyces cerevisiae; settings: cited from earlier work
[17] = tested on: Kluyveromyces bulgaris; settings: cited from earlier work
[18] = tested on: Fusarium oxysporum; settings: cited from earlier work
[19] = tested on: Saccharomyces cerevisae; settings: cited from earlier work
[20] = tested on: Candida albicans; settings: cited from earlier work; remark: listed apart in the source
[21] = tested on: Absydia corymbifera; settings: cited from earlier work
[22] = tested on: Aspergillus niger; settings: cited from earlier work; remark: listed apart in the source
[23] = tested on: Kluyveromyces bulgaris; settings: cited from earlier work; remark: listed apart in the source
[24] = tested on: Fusarium oxysporum; settings: cited from earlier work; remark: listed apart in the source
[25] = tested on: Botrytis cinerea; settings: cited from earlier work
[26] = tested on: Sclerotina fructigena; settings: cited from earlier work
[27] = tested on: Rhodotorula pillimanae; settings: cited from earlier work
[28] = tested on: Sclerotina sclerotiorum; settings: cited from earlier work
[29] = tested on: Stemphylium radicinum; settings: cited from earlier work
[30] = tested on: Staphylococcus aureus; settings: cited from earlier work
[31] = tested on: Streptomyces albus G; settings: cited from earlier work
[32] = tested on: Neurospora crassa; settings: cited from earlier work
[33] = tested on: Penicillium chysogenum; settings: cited from earlier work
[34] = tested on: Escherichia coli K12; settings: cited from earlier work
[35] = tested on: Trichophyton mentagrophytes; settings: cited from earlier work
[36] = tested on: Pleospora herbarum; settings: cited from earlier work
[37] = tested on: Azotobacter vinelandii; settings: cited from earlier work
[38] = tested on: Sarcinia lutea; settings: cited from earlier work
[39] = tested on: Brucella brochiseptica; settings: cited from earlier work
[40] = tested on: Micrococcus luteus; settings: cited from earlier work; remark: listed apart in the source
[41] = tested on: Bacillus cereus; settings: cited from earlier work

Compound: Mycosubtilin (NYNQPSN; also: cyclic lipopeptide with β-amino fatty acid, ring closure not described) [Mycosubtlin, iturin lipopeptide: Asn Tyr Asn Gln Pro Ser Asn with β amino acid i-C16, a-C17]
- Inhibition of growth of Micrococcus luteus [1]: inhibited the growth
- Lysis of Micrococcus luteus protoplast [2]: able to lyse

Compound: Bacillomycin F (NYNQPNT; also: cyclic lipopeptide with β-amino fatty acid, ring closure not described) [iturin lipopeptide: Asn Tyr Asn Gln Pro Asn Thr with β amino acid i-C16, i-C17, a-C17]
- Antibacterial activity [3]: weak antibacterial activity
- Antifungal activity [4]: strong antifungal activity

Compound: a1: cyclic lipopeptide from B. subtilis AU195, bacillomycin D family, [M+H] 1045.5, linearised sequence STNYNPE, β-amino fatty acid believed of 15 carbons (not fully specified; also: cyclic lipopeptide, C15 β-amino fatty acid (hydroxy fatty acid at Thr suggested), sequence given after Glu-C linearisation)
- Disc plate diffusion assay Minimal amount to inhibit hyphal growth [5]: 15 µg

Compound: Bacillomycin Lc
- Antifungal activity [6]: antifungal activity
- Antifungal activity [7]: antifungal activity
- Antifungal activity [8]: antifungal activity
- Antifungal activity [9]: antifungal activity

Compound: Bacillomycin L (DYNSQST; also: cyclic lipopeptide with β-amino fatty acid, ring closure not described) [iturin lipopeptide: Asp Tyr Asn Ser Gln Ser Thr with β amino acid n-C14, i-C15, a-C15]
- Inhibition of growth of Micrococcus luteus [1]: inhibited the growth
- Lysis of Micrococcus luteus protoplast [2]: no effect

Compound: CCCCCCCCCCCCC[C@@H]1CC(=O)N[C@@H](CC(N)=O)C(=O)N[C@H](Cc2ccc(O)cc2)C(=O)N[C@H](CC(N)=O)C(=O)N2CCC[C@H]2C(=O)N[C@@H](CCC(=O)O)C(=O)N[C@H](CO)C(=O)N[C@@H]([C@@H](C)O)C(=O)N1 [a2] (HELM PEPTIDE1{E.[dS].T.[CCCCCCCCCCCCC[C@H](CC(=O)[*:2])N[*:1]].N.[dY].[dN].P}$PEPTIDE1,PEPTIDE1,1:R1-8:R2$$$V2.0)
- Microtiter plate Minimal inhibitory concentration (MIC) [10]: 130 µM
- Disc plate diffusion assay Minimal amount to inhibit hyphal growth [5]: 3 µg

Compound: Bacillomycin Fc
- MIC [11]: 30 µg/mL
- MIC [12]: > 200 µg/mL
- MIC [13]: > 200 µg/mL
- MIC [14]: 30 µg/mL
- MIC [15]: 40 µg/mL
- MIC [16]: 30 µg/mL
- MIC [17]: 40 µg/mL
- MIC [18]: > 200 µg/mL

Compound: Iturin A (NYNQPNS; also: cyclic with β-amino fatty acid, ring closure not described) [cyclic lipopeptide of Bacillus subtilis: Asn Tyr Asn Gln Pro Asn Ser with β amino acid n-C14, i-C15, a-C15]
- Inhibition of growth of Micrococcus luteus [1]: inhibited the growth
- Lysis of Micrococcus luteus protoplast [2]: able to lyse
- Microtiter plate Minimal inhibitory concentration (MIC) ([10]; Aspergillus flavus, 500 spores per well, O.D. 560 nm): 250 µM
- Disc plate diffusion assay Minimal amount to inhibit hyphal growth [5]: > 50 µg

Compound: Bacillomycin D (NYNPEST; also: cyclic lipopeptide with β-amino fatty acid, ring closure not described) [iturin lipopeptide: Asn Tyr Asn Pro Glu Ser Thr with β amino acid n-C14, i-C15, a-C15]
- Antifungal activity [19]: antifungal
- Antifungal activity [20]: antifungal
- Antifungal activity [21]: antifungal
- Antifungal activity [22]: antifungal
- Antifungal activity [23]: antifungal
- Antifungal activity [24]: antifungal

Compound: Bacillomycin Fa
- MIC [11]: 10 µg/mL
- MIC [25]: 20 µg/mL
- MIC [26]: 40 µg/mL
- MIC [12]: 40 µg/mL
- MIC [27]: 80 µg/mL
- MIC [28]: 50 µg/mL
- MIC [29]: 320 µg/mL
- MIC [30]: > 400 µg/mL
- MIC [31]: > 400 µg/mL
- MIC [13]: 40 µg/mL
- MIC [32]: 80 µg/mL
- MIC [14]: 40 µg/mL
- MIC [33]: 20 µg/mL
- MIC [34]: > 400 µg/mL
- MIC [35]: 20 µg/mL
- MIC [36]: 10 µg/mL
- MIC [16]: 10 µg/mL
- MIC [37]: > 400 µg/mL
- MIC [38]: > 400 µg/mL
- MIC [39]: > 400 µg/mL
- MIC [40]: 200 µg/mL
- MIC [41]: > 400 µg/mL
- MIC [18]: > 320 µg/mL

Compound: Bacillomycin Fb
- MIC [11]: 100 µg/mL
- MIC [12]: > 200 µg/mL
- MIC [13]: > 200 µg/mL
- MIC [14]: 25 µg/mL
- MIC [15]: 25 µg/mL
- MIC [16]: 25 µg/mL
- MIC [17]: 75 µg/mL
- MIC [18]: > 200 µg/mL
